Test results as given in ChEMBL document CHEMBL4387705, “Synthesis of new arylsulfonylspiroimidazolidine-2',4'-diones and study of their effect on stimulation of insulin release from MIN6 cell line, inhibition of human aldose reductase, sorbitol accumulations in various tissues and oxidative stress” (Eur J Med Chem, 2019).

Assays:
MIN6 [1] = assay: Cytotoxicity against mouse MIN6 cells assessed as reduction in cell viability up to 200 uM incubated for 24 hrs by MTT assay; format: cell-based; conditions: min6, 24 h
[2] = Cytotoxicity against mouse MIN6 cells assessed as cell viability at 400 uM incubated for 24 hrs by MTT assay; format: cell-based; conditions: read-out: Activity
MIN6 [3] = assay: Antidiabetic activity in mouse MIN6 cells after 35 passages assessed as increase in insulin secretion at 100 uM in presence of 25 mM glucose by ELISA relative to control; format: functional
MIN6 [4] = assay: Antidiabetic activity in mouse MIN6 cells after 83 passages assessed as increase in insulin secretion at 100 uM in presence of 25 mM glucose by ELISA relative to control; format: functional
[5] = target: Aldo-keto reductase family 1 member B1 (Homo sapiens, UniProt P15121); assay: Inhibition of human recombinant ALR2 expressed in Escherichia coli using DL-glyceraldehyde as substrate and NADPH preincubated for 5 mins followed by substrate addition and measured after 30 mins at 2 mins interval by spectrophotometry relative to control
[6] = target: Aldo-keto reductase family 1 member B1 (Rattus norvegicus) (UniProt P07943); assay: (§1) Inhibition of ALR2 in rat erythrocytes assessed as reduction in sorbitol accumulation incubated for 3 hrs in presence of 28 mM glucose by gas chromatographic analysis relative to control; format: cell-based
[7] = target: T1, Aldo-keto reductase family 1 member B1 (Rattus norvegicus, UniProt P07943); assay: as §1; format: cell-based
[8] = target: Aldo-keto reductase family 1 member B1 (Rattus norvegicus) (UniProt P07943); assay: (§2) Inhibition of ALR2 in rat sciatic nerve assessed as reduction in sorbitol accumulation incubated for 3 hrs in presence of 28 mM glucose by gas chromatographic analysis
[9] = target: T1, Aldo-keto reductase family 1 member B1; assay: as §2
[10] = target: Aldo-keto reductase family 1 member B1 (Rattus norvegicus) (UniProt P07943); assay: (§3) Inhibition of ALR2 in rat lens assessed as reduction in sorbitol accumulation incubated for 3 hrs in presence of 28 mM glucose by gas chromatographic analysis relative to control
[11] = target: T1, Aldo-keto reductase family 1 member B1; assay: as §3
[12] = Antioxidant activity assessed as DPPH radical scavenging activity at 100 uM incubated for 30 mins under dark condition by spectrophotometry; format: functional
[13] = Cytotoxicity against HEK293 cells assessed as reduction in cell viability at 25 uM incubated for 48 hrs by MTT assay relative to control; format: cell-based; conditions: human, read-out: INH
[14] = Cytotoxicity against HEK293 cells assessed as reduction in cell viability at 50 uM incubated for 48 hrs by MTT assay relative to control; format: cell-based; conditions: human, read-out: INH
[15] = Cytotoxicity against HEK293 cells assessed as reduction in cell viability at 100 uM incubated for 48 hrs by MTT assay relative to control; format: cell-based; conditions: human, read-out: INH
[16] = Cytotoxicity against HEK293 cells assessed as reduction in cell viability at 200 uM incubated for 48 hrs by MTT assay relative to control; format: cell-based; conditions: human, read-out: INH
MIN6 [17] = assay: Effect on cell morphology in mouse MIN6 cells assessed as cell viability up to 400 uM incubated for 24 hrs; format: cell-based; conditions: min6, 24 h
[18] = Antioxidant activity assessed as DPPH radical scavenging activity at 10 uM incubated for 30 mins under dark condition by spectrophotometry; format: functional
[19] = Antioxidant activity assessed as DPPH radical scavenging activity at 50 uM incubated for 30 mins under dark condition by spectrophotometry; format: functional
[20] = target: Aldo-keto reductase family 1 member A1 (Rattus norvegicus, UniProt P51635); assay: Inhibition of rat kidney ALR1 using DL-glyceraldehyde as substrate and NADPH preincubated for 5 mins followed by substrate addition and measured for 30 mins at 2 mins interval by spectrophotometry relative to control
Aldo-keto reductase family 1 member A1, sequence (P51635 whole entry, looked up): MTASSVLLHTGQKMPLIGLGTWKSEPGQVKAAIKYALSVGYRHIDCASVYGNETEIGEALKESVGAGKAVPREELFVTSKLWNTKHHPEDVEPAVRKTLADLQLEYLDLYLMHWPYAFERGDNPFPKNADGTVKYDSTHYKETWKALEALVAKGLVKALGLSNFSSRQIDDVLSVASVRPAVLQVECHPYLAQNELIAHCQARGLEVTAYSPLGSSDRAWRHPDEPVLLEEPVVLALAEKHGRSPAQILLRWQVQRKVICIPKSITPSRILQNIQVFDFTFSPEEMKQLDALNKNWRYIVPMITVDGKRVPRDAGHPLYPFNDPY

[21] = Selectivity ratio of IC50 for rat kidney ALR1 IC50 to IC50 for human recombinant ALR2

| SMILES | Activity (MIN6 [1]) | viability at 24 h, 400 µM [2] | Activity (MIN6 [3]) | Activity (MIN6 [4]) | IC50 [5] | inhibition [6] | IC50 [7] | inhibition [8] | IC50 [9] | inhibition [10] | IC50 [11] | inhibition [12] | cytotoxicity at 48 h, 25 µM [13] | cytotoxicity at 48 h, 50 µM [14] | cytotoxicity at 48 h, 100 µM [15] | cytotoxicity at 48 h, 200 µM [16] | Activity (MIN6 [17]) | inhibition [18] | inhibition [19] | further results |
| --- | --- | --- | --- | --- | --- | --- | --- | --- | --- | --- | --- | --- | --- | --- | --- | --- | --- | --- | --- | --- |
| O=C1NC(=O)C2(CCCc3ccccc32)N1S(=O)(=O)c1ccc(F)cc1 (stereo not drawn) | Non-Toxic | 81% | 250% | 164% | 5.84 µM | Dose-dependent effect | 5.49 µM | Dose-dependent effect | 7.37 µM | Dose-dependent effect | 6.25 µM | 2.52% | 11.9% | 18.9% | 25.1% | 36.3% | Non-Toxic |  |  |  |
| Cc1ccc(S(=O)(=O)N2C(=O)NC3(CCCc4ccccc43)C2=O)cc1 (stereo not drawn) | Non-Toxic | 81% | 275% | 177% | 1.8 µM | Dose-dependent effect | 1.7 µM | Dose-dependent effect | 1.72 µM | Dose-dependent effect | 1.56 µM | 42.4% | 18.2% | 19.1% | 20.2% | 21.5% | Non-Toxic | 23.2% | 37.3% |  |
| O=C1NC(=O)C2(CCCc3ccccc32)N1S(=O)(=O)c1ccc([N+](=O)[O-])cc1 (stereo not drawn) | Non-Toxic | 81% | 145% |  | 34.5 µM | Dose-dependent effect |  | Dose-dependent effect |  | Dose-dependent effect |  | 87.6% | 23.6% | 36% | 39.2% | 53.4% | Non-Toxic | 70.5% | 77.3% |  |
| O=C1NC2(CCCc3ccccc32)C(=O)N1S(=O)(=O)c1ccc(Br)cc1 (stereo not drawn) | Non-Toxic | 81% | 165% |  | 10.8 µM | Dose-dependent effect | 11.1 µM | Dose-dependent effect | 10.4 µM | Dose-dependent effect | 10.9 µM | 1.55% | 16.9% | 18.9% | 21.1% | 39.3% | Non-Toxic |  |  | IC50 [20]: 44.1 µM; Ratio IC50 [21]: 4.07 |
| Cc1c(C)c2c(c(C)c1O)CCC(C)(C(=O)O)O2 (stereo not drawn) |  |  |  |  |  |  |  |  |  |  |  | 94.2% |  |  |  |  |  | 82.5% | 84.5% |  |
| CC(=O)c1ccc(S(=O)(=O)N2C(=O)NC3(CCCc4ccccc43)C2=O)cc1 (stereo not drawn) | Non-Toxic | 81% | 118% |  | 37.7 µM | Dose-dependent effect | 25.7 µM | Dose-dependent effect | 22.7 µM | Dose-dependent effect | 34.8 µM | 75.3% | 17.5% | 24.4% | 42% | 55.5% | Non-Toxic | 25.1% | 39.8% |  |
| O=C1NC(=O)C2(CCCc3ccccc32)N1S(=O)(=O)c1ccc(Br)cc1 (stereo not drawn) | Non-Toxic | 81% | 210% | 160% | 5.72 µM | Dose-dependent effect | 2.79 µM | Dose-dependent effect | 2.72 µM | Dose-dependent effect | 2.5 µM | 1.59% | 12.8% | 18.8% | 19.4% | 25.8% | Non-Toxic |  |  | IC50 [20]: 41.4 µM; Ratio IC50 [21]: 7.23 |
| O=C1NC2(CCCc3ccccc32)C(=O)N1S(=O)(=O)c1ccc([N+](=O)[O-])cc1 (stereo not drawn) | Non-Toxic | 81% | 121% |  |  | Dose-dependent effect |  | Dose-dependent effect |  | Dose-dependent effect |  | 77.6% | 9.37% | 14.2% | 19.2% | 28.4% | Non-Toxic | 44.8% | 67.3% |  |
| CC(/C=C1\SC(=S)N(CC(=O)O)C1=O)=C\c1ccccc1 |  |  |  |  |  |  |  |  |  |  |  |  | 10.3% | 12% | 13.7% | 18.3% |  |  |  |  |
| O=C1NC2(CCCc3ccccc32)C(=O)N1S(=O)(=O)c1ccc(Cl)cc1 (stereo not drawn) | Non-Toxic | 81% | 145% |  | 40.2 µM | Dose-dependent effect |  | Dose-dependent effect |  | Dose-dependent effect |  | 8.44% | 12.7% | 16.1% | 18.2% | 23.3% | Non-Toxic |  |  |  |
| O=C1NC2(CCCc3ccccc32)C(=O)N1S(=O)(=O)c1ccc(F)cc1 (stereo not drawn) | Non-Toxic | 81% | 111% |  |  | Dose-dependent effect |  | Dose-dependent effect |  | Dose-dependent effect |  | 2.51% | 11.4% | 26.1% | 31.9% | 36.5% | Non-Toxic |  |  |  |
| COc1ccc(S(=O)(=O)N2C(=O)NC3(CCCc4ccccc43)C2=O)cc1 (stereo not drawn) | Non-Toxic | 81% | 142% |  | 11.7 µM | Dose-dependent effect | 20.4 µM | Dose-dependent effect | 19.4 µM | Dose-dependent effect | 15.8 µM | 66.9% | 15.4% | 13.6% | 18.5% | 26.6% | Non-Toxic | 31.6% | 45.3% | IC50 [20]: 25.6 µM; Ratio IC50 [21]: 2.2 |
| O=C1NC(=O)C2(CCCc3ccccc32)N1S(=O)(=O)c1ccc(Cl)cc1 (stereo not drawn) | Non-Toxic | 81% | 140% | 159% | 6.15 µM | Dose-dependent effect | 3.8 µM | Dose-dependent effect | 4.34 µM | Dose-dependent effect | 3.86 µM | 8.48% | 10.8% | 12.6% | 19.9% | 33.3% | Non-Toxic |  |  |  |
| Cc1ccc(S(=O)(=O)N2C(=O)NC(=O)C23CCCc2ccccc23)cc1 (stereo not drawn) | Non-Toxic | 81% | 308% | 222% | 5.02 µM | Dose-dependent effect | 1.34 µM | Dose-dependent effect | 1.33 µM | Dose-dependent effect | 1.15 µM | 42.4% | 13.9% | 22.9% | 22.6% | 32% | Non-Toxic | 33.3% | 37.5% |  |
